Assay results: PubChem BioAssay (NCI)
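1) Cells in 96-well plates. 2) Compound, 48 h, 5 concentrations. 3) Linear interpolation between surrounding doses. 4) Unreached endpoint = highest concentration. The concentration for 50% growth inhibition is given as GI50. TGI marks complete inhibition of growth.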

Experiments:
Experiment in all cases: growth of human tumour cells (NCI), 48 h
CAKI-1 renal = tested on: CAKI-1 renal
CCRF-CEM leukemia = tested on: CCRF-CEM leukemia
HOP-92 NSCLC = tested on: HOP-92 NSCLC
K-562 leukemia = tested on: K-562 leukemia
KM12 colon = tested on: KM12 colon
MOLT-4 leukemia = tested on: MOLT-4 leukemia
OVCAR-3 ovarian = tested on: OVCAR-3 ovarian
OVCAR-8 ovarian = tested on: OVCAR-8 ovarian
RPMI-8226 leukemia = tested on: RPMI-8226 leukemia
RXF 393 renal = tested on: RXF 393 renal
SF-295 CNS = tested on: SF-295 CNS
SW-620 colon = tested on: SW-620 colon
UACC-62 melanoma = tested on: UACC-62 melanoma
DU-145 prostate = tested on: DU-145 prostate

Compound `O=c1cc(-c2ccc3c(c2)OCO3)[nH]c2cc3c(cc12)OCO3` has a TGI (CAKI-1 renal) of over 100 µM, a TGI (CCRF-CEM leukemia) of over 100 µM and a TGI (HOP-92 NSCLC) of over 100 µM. For the same compound, the TGI (K-562 leukemia) was over 100 µM, the TGI (KM12 colon) was over 100 µM and the TGI (MOLT-4 leukemia) was over 100 µM. The GI50 (OVCAR-3 ovarian) was 19.5 µM, the TGI (OVCAR-3 ovarian) was 43.2 µM and the TGI (OVCAR-8 ovarian) was 78.1 µM. The TGI (RPMI-8226 leukemia) was over 100 µM, the GI50 (RXF 393 renal) was 20.8 µM and the TGI (RXF 393 renal) was 66.5 µM. It also gave a GI50 (SF-295 CNS) of 29.6 µM, a TGI (SF-295 CNS) of 87.8 µM and a TGI (SW-620 colon) of over 100 µM. It also gave a TGI (UACC-62 melanoma) of over 100 µM.

Compound `CC(C)C(NC(=O)Oc1ccccc1)C(=O)NC1c2c(Br)sc(Br)c2C(=O)C1O` (stereo unspecified) has a TGI (CAKI-1 renal) of 14.1 µM, a TGI (CCRF-CEM leukemia) of 15.6 µM and a TGI (DU-145 prostate) of over 25 µM. It also gave a TGI (K-562 leukemia) of 17.4 µM, a TGI (KM12 colon) of over 25 µM and a TGI (MOLT-4 leukemia) of over 25 µM. The TGI (OVCAR-3 ovarian) was 8.21 µM, the TGI (OVCAR-8 ovarian) was 9.15 µM and the TGI (RXF 393 renal) was 7.25 µM. The TGI (SF-295 CNS) was over 25 µM, the TGI (SW-620 colon) was 11.1 µM and the TGI (UACC-62 melanoma) was 8.08 µM.

`CCOC(=O)/C(=C/c1ccc(OC)cc1)N(CC)CC` was tested, and the TGI (CAKI-1 renal) was over 100 µM, the TGI (CCRF-CEM leukemia) was over 100 µM and the TGI (HOP-92 NSCLC) was over 100 µM. For the same compound, the TGI (K-562 leukemia) was over 100 µM, the TGI (KM12 colon) was over 100 µM and the TGI (MOLT-4 leukemia) was over 100 µM. The TGI (OVCAR-3 ovarian) was over 100 µM, the TGI (OVCAR-8 ovarian) was over 100 µM and the TGI (RPMI-8226 leukemia) was over 100 µM. It also gave a TGI (SF-295 CNS) of over 100 µM, a TGI (SW-620 colon) of over 100 µM and a TGI (UACC-62 melanoma) of over 100 µM.

Work on `CCOC(=O)c1cc(-c2ccc(OC)cc2)c([N+](=O)[O-])n1C` yielded a TGI (CCRF-CEM leukemia) of over 10 µM, a TGI (DU-145 prostate) of over 10 µM and a TGI (HOP-92 NSCLC) of over 10 µM. The TGI (K-562 leukemia) was over 10 µM, the TGI (KM12 colon) was over 10 µM and the TGI (MOLT-4 leukemia) was over 10 µM. For the same compound, the TGI (OVCAR-3 ovarian) was over 10 µM, the TGI (OVCAR-8 ovarian) was over 10 µM and the TGI (RXF 393 renal) was 4.81 µM. The TGI (SF-295 CNS) was over 10 µM and the TGI (UACC-62 melanoma) was over 10 µM.

`N#Cc1cccc(-n2[nH]c(=O)ccc2=O)c1` was tested, and the TGI (CAKI-1 renal) was over 100 µM, the TGI (CCRF-CEM leukemia) was over 100 µM and the TGI (HOP-92 NSCLC) was over 100 µM. For the same compound, the TGI (K-562 leukemia) was over 100 µM, the TGI (KM12 colon) was over 100 µM and the TGI (MOLT-4 leukemia) was over 100 µM. It also gave a TGI (OVCAR-3 ovarian) of over 100 µM, a TGI (OVCAR-8 ovarian) of over 100 µM and a TGI (RPMI-8226 leukemia) of over 100 µM. For the same compound, the TGI (SF-295 CNS) was over 100 µM, the TGI (SW-620 colon) was over 100 µM and the TGI (UACC-62 melanoma) was over 100 µM.

`CCOC(=O)C(=[N+]=[N-])C(=O)CN1C(=O)c2ccccc2C1=O` showed a TGI (CAKI-1 renal) of over 100 µM, a TGI (DU-145 prostate) of over 100 µM and a TGI (HOP-92 NSCLC) of over 100 µM. It also gave a TGI (K-562 leukemia) of over 100 µM, a TGI (MOLT-4 leukemia) of over 100 µM and a TGI (OVCAR-3 ovarian) of over 100 µM. For the same compound, the TGI (OVCAR-8 ovarian) was over 100 µM, the TGI (RXF 393 renal) was over 100 µM and the TGI (SF-295 CNS) was over 100 µM. The TGI (SW-620 colon) was over 100 µM and the TGI (UACC-62 melanoma) was over 100 µM.

For `COc1cc2c(cc1O)[C@H](C)C(c1ccc(OC)c(OC)c1)O2` (stereo partly specified), the TGI (CAKI-1 renal) was 15.9 µM, the TGI (CCRF-CEM leukemia) was 25.6 µM and the TGI (HOP-92 NSCLC) was 23.1 µM. It also gave a TGI (K-562 leukemia) of 17.4 µM, a TGI (KM12 colon) of over 100 µM and a TGI (MOLT-4 leukemia) of 23.9 µM. It also gave a TGI (OVCAR-3 ovarian) of 16.6 µM, a TGI (OVCAR-8 ovarian) of 35.1 µM and a TGI (RXF 393 renal) of 30.3 µM. For the same compound, the TGI (SF-295 CNS) was over 100 µM, the TGI (SW-620 colon) was 19.4 µM and the TGI (UACC-62 melanoma) was 10.1 µM.

`O=C1c2ccccc2-n2nnnc2C2CSCN12` (stereo unspecified) gave a TGI (CAKI-1 renal) of over 100 µM, a TGI (CCRF-CEM leukemia) of over 100 µM and a TGI (DU-145 prostate) of over 100 µM. For the same compound, the TGI (K-562 leukemia) was over 100 µM, the TGI (KM12 colon) was over 100 µM and the TGI (MOLT-4 leukemia) was over 100 µM. It also gave a TGI (OVCAR-3 ovarian) of over 100 µM, a TGI (OVCAR-8 ovarian) of over 100 µM and a TGI (RPMI-8226 leukemia) of over 100 µM. It also gave a TGI (RXF 393 renal) of over 100 µM, a TGI (SF-295 CNS) of over 100 µM and a TGI (SW-620 colon) of over 100 µM. The TGI (UACC-62 melanoma) was over 100 µM.

In the case of `CCCC/C=C/C=C/C=C/CCCCCCCC(=O)OCC(COC(=O)CCCCCCC/C=C/C1C=CC(CCCC)C(C(=O)O)C1C(=O)O)OC(=O)CCCCCCC/C=C/C=C/C=C/CCCC` (stereo unspecified) (tested in a mixture with another compound), the TGI (CAKI-1 renal) is reported as 76.1 µM, the TGI (CCRF-CEM leukemia) is reported as 34.2 µM and the TGI (HOP-92 NSCLC) is reported as 48.1 µM. For the same compound, the TGI (K-562 leukemia) was 44.2 µM, the TGI (KM12 colon) was 34.6 µM and the TGI (MOLT-4 leukemia) was 47.2 µM. The TGI (OVCAR-3 ovarian) was 38.3 µM, the TGI (OVCAR-8 ovarian) was 44.5 µM and the TGI (RPMI-8226 leukemia) was 15 µM. For the same compound, the TGI (SF-295 CNS) was 35.8 µM, the TGI (SW-620 colon) was 18 µM and the TGI (UACC-62 melanoma) was 29.1 µM.
